The record followed here is US10595542B2, “Method for producing Swiss-type cheese” (CSK Food Enrichment B.V., priority 2014, dated 2020).

In test [1] the test system is different strains of C. tyrobutyricum. In words: MIC value determination against C. tyrobutyricum. Format: cell-based, Clostridium tyrobutyricum. The procedure:
The dairy Propionibacteria that are comprised in the starter culture according to the invention are preferably characterized by having a MIC value of 5 mg or higher, more preferably 10 mg or higher, even more preferably 25 mg or higher, even more preferably 50 mg or higher, most preferably even 100 mg or higher for lacticin 3147 per litre of growth medium. Herein, the term MIC has its common meaning of “minimal inhibitory concentration” and is the lowest concentration of an antimicrobial (in the present case lacticin 3147) that will inhibit the visible growth of a microorganism after overnight incubation. MIC values for lacticin 3147 or other bacteriocins are typically determined according to the following test: Propionibacterium strains are grown from an individual colony for 2-3 nights (SLA, 30° C., anaerobically) until turbid. 3% inoculum is subbed into fresh SLA medium and incubated for approx. 7 hours until OD600 0.5 is reached. […] Growth following incubation at 30° C. anaerobically for 19-24 hours is visually evaluated by inspecting turbidity from left to right. MIC values are determined according to the last well where no visible growth is observed (average of triplicate determinations). […]
MIC values were determined according to a protocol from UCC & Piper et al., J. Antimicrob. […]

In test [2] the test system is Lb. delbrueckii ssp. lactis, C99. In words: MIC value determination of Lactobacilli. Format: cell-based, Lactobacillus delbrueckii. Conditions: results not shown. The procedure:
(§1) MIC values were determined according to a protocol from UCC & Piper et al., J. Antimicrob. Chemother. 2009, 61(3), 546. The protocol was adapted for 96 wells mictrotitre plate screening. Indicator strains Lb. delbrueckii ssp. lactis, C99 (commercially available ex CSK Food Enrichment CV) and Propionibacterium freudenreichii, C21 (commercially available ex CSK Food Enrichment CV) were used. Growth media were MRS for C99, sodium lactate agar (SLA) for C21.
(§2) MIC value determination of Lactobacilli against lacticin was performed according to the following procedure: Lactobacillus strains were grown, from an individual colony, overnight (MRS, 37 deg C., anaerobically) until turbid. 3% inoculum was subbed into fresh […] medium and incubated for approx. 7 hours until OD600 0.5 was reached. Of the resulting culture, 10^5 cfu/ml was inoculated into 96 wells microtitreplates containing fresh MRS medium comprising lacticin 3147 ranging in concentrations from 100 mg/L to 0.01 mg/L (high concentrations to the left, low concentrations to the right). Visually evaluated growth following incubation at 37° C. anaerobically for 19-24 hours, by inspecting turbidity from left to right (i.e. starting at the highest lacticin concentrations). MIC values were determined according to the last well where no visible growth is observed (average of triplicate determinations).

In test [3] the test system is Propionibacteria freudenreichii CSK code 21. As to the kind of experiment: MIC value determination, 96 wells microtitre plate. Conditions: strain CSK code 21; SLA medium, 30° C. anaerobically 19-24 hours; average of triplicate. The class given is cell-based, Propionibacterium freudenreichii. The procedure: (§3) The dairy Propionibacteria that are comprised in the starter culture according to the invention are preferably characterized by having a MIC value of 5 mg or higher, more preferably 10 mg or higher, even more preferably 25 mg or higher, even more preferably 50 mg or higher, most preferably even 100 mg or higher for lacticin 3147 per litre of growth medium. Herein, the term MIC has its common meaning of “minimal inhibitory concentration” and is the lowest concentration of an antimicrobial (in the present case lacticin 3147) that will inhibit the visible growth of a microorganism after overnight incubation. MIC values for lacticin 3147 or other bacteriocins are typically determined according to the following test: Propionibacterium strains are grown from an individual colony for 2-3 nights (SLA, 30° C., anaerobically) until turbid. 3% inoculum is subbed into fresh SLA medium and incubated for approx. 7 hours until OD600 0.5 is reached. Of the resulting culture, 10^5 cfu/ml is inoculated into 96 wells microtitreplates containing fresh SLA medium comprising lacticin 3147, or other bacteriocin, ranging in concentrations from 100 mg/L to 0.01 mg/L (high concentrations to the left, low concentrations to the right). Growth following incubation at 30° C. anaerobically for 19-24 hours is visually evaluated by inspecting turbidity from left to right. MIC values are determined according to the last well where no visible growth is observed (average of triplicate determinations). The above protocol under appropriate growth conditions can be used to obtain MIC values of other strains, e.g. of Lactoabacilli, Clostridia, etc., against lacticin 3147 or other bacteriocins such as nisin. […] At the same time MIC values against nisin were at least 20 times lower.
as §1
as §2, with “propionibacteria” for “Lactobacilli”, “Propionibacterium” for “Lactobacillus”, “for 2-3 nights (SLA, 30” for “overnight (MRS, 37”, “SLA” for “MRS”, “30°” for “37°”, “determinations). MIC values against nisin have be obtained similarly.” for “determinations).”

Test [4] deals with Propionibacteria freudenreichii CSK 1205. As to the kind of experiment: MIC value determination, 96 wells microtitre plate. The class given is cell-based, Propionibacterium freudenreichii. The settings on record: strain CSK 1205; SLA medium, 30° C. anaerobically 19-24 hours; average of triplicate. The procedure: as §3, §1
as §2, with “propionibacteria” for “Lactobacilli”, “Propionibacterium” for “Lactobacillus”, “for 2-3 nights (SLA, 30” for “overnight (MRS, 37”, “SLA” for “MRS”, “30°” for “37°”, “determinations). MIC values against nisin have be obtained similarly.” for “determinations).”

The subject of test [5] is Propionibacteria freudenreichii DPC 4555. As to the kind of experiment: MIC value determination, 96 wells microtitre plate. Format: cell-based, Propionibacterium freudenreichii. The settings on record: strain DPC 4555; SLA medium, 30° C. anaerobically 19-24 hours; average of triplicate. The procedure: as §3, §1
as §2, with “propionibacteria” for “Lactobacilli”, “Propionibacterium” for “Lactobacillus”, “for 2-3 nights (SLA, 30” for “overnight (MRS, 37”, “SLA” for “MRS”, “30°” for “37°”, “determinations). MIC values against nisin have be obtained similarly.” for “determinations).”

The subject of test [6] is Propionibacteria freudenreichii DPC 2241. As to the kind of experiment: MIC value determination, 96 wells microtitre plate. The class given is cell-based, Propionibacterium freudenreichii. Conditions: strain DPC 2241; SLA medium, 30° C. anaerobically 19-24 hours; average of triplicate. The procedure: as §3, §1
as §2, with “propionibacteria” for “Lactobacilli”, “Propionibacterium” for “Lactobacillus”, “for 2-3 nights (SLA, 30” for “overnight (MRS, 37”, “SLA” for “MRS”, “30°” for “37°”, “determinations). MIC values against nisin have be obtained similarly.” for “determinations).”

lacticin 3147 displayed an MIC values in test [1] of 0.4 to 2.5 µg/mL. Further, in test [2], the “lacticin 3147 required to inhibit relative to nisin” value is recorded as “Approximately 10 times”. Besides, the MIC in test [3] is over 50 µg/mL; in test [4] it was over 50 µg/mL; in test [5] it was 8.3 µg/mL; in test [6], over 50 µg/mL.

Turning to nisin [reference compound], the MIC values in test [1] lay in the range of 0.03 to 0.1 µg/mL. Also, the MIC in test [3] was 1.25 µg/mL; in test [4], 1.25 µg/mL; in test [5], 0.039 µg/mL; in test [6], 2.5 µg/mL.
